From patent US9750255B2, “Agricultural or horticultural chemical, method of controlling plant diseases, and product for controlling plant diseases” (Kureha Corporation, priority 2013, dated 2017)

Tests used:
Fusarium graminearum = assay: microbe, parasite or virus in culture; type: cell-based
Septoria tritici = assay: In vitro antimicrobial activity test, colony diameter on PDA plate, Septoria tritici; details: for Fungal growth inhibition rate (%) Measured value: 25° C., 14 days
Microdochium nivale = assay: In vitro antimicrobial activity test, colony diameter on PDA plate, Microdochium nivale
Penicilium italicum = assay: In vitro antimicrobial activity test, colony diameter on PDA plate, Penicilium italicum
Phaeosphaeria nodorum = assay: In vitro antimicrobial activity test, colony diameter on PDA plate, Phaeosphaeria nodorum
[1] = Fusarium graminearum, 72 h, read-out: Fungal growth inhibition rate (%) Measured value
[2] = Zymoseptoria tritici, 336 h, read-out: Fungal growth inhibition rate (%) Measured value
[3] = Parastagonospora nodorum, 168 h, read-out: Fungal growth inhibition rate (%) Measured value
[4] = Microdochium nivale, 72 h, read-out: Fungal growth inhibition rate (%) Measured value
[5] = 72 h, read-out: Fungal growth inhibition rate (%) Measured value

`Fc1ccc([C@]2(Cn3cncn3)O[C@H]2c2ccccc2Cl)cc1` (racemic) [Epoxiconazole, epoxiconazole] was tested, and the inhibition at 0.01 ppm (Fusarium graminearum; [1]) was 22%, the inhibition at 0.04 ppm (Fusarium graminearum; [1]) was 27% and the inhibition at 0.16 ppm (Fusarium graminearum; [1]) was 39%. For the same compound, the inhibition at 0.63 ppm (Fusarium graminearum; [1]) was 57% and the inhibition at 2.5 ppm (Fusarium graminearum; [1]) was 88%.
With `COC(=O)C1(C)CCC(Cc2ccc(Cl)cc2)C1(O)Cn1cncn1` (stereo not drawn) [Compound (1), methyl 3-(4-chlorobenzyl)-2-hydroxy-1-methyl-2-(1H-1,2,4-triazole-1-ylmethyl)cyclopentane carbonate] the “Fungal growth inhibition rate (%) Measured value” (Fusarium graminearum; Test Example 3, compound (1) 1.25 ppm alone, 25° C., 3 days) was 93%, the “Fungal growth inhibition rate (%) Measured value” (Septoria tritici; Test Example 1, compound (1) 0.005 ppm alone) was 35% and the “Fungal growth inhibition rate (%) Measured value” (Septoria tritici; Test Example 2, compound (1) 0.02 ppm alone) was 3%. For the same compound, the “Fungal growth inhibition rate (%) Measured value” (Septoria tritici; Test Example 7, compound (1) 1.25 ppm alone) was 70%, the “Fungal growth inhibition rate (%) Measured value” (Septoria tritici; Test Example 8, compound (1) 1.25 ppm alone) was 77% and the “Fungal growth inhibition rate (%) Measured value” (Microdochium nivale; Test Example 4, compound (1) 0.313 ppm alone, 25° C., 3 days) was 26%. The “Fungal growth inhibition rate (%) Measured value” (Penicilium italicum; Test Example 5, compound (1) 1.25 ppm alone, 25° C., 3 days) was 83% and the “Fungal growth inhibition rate (%) Measured value” (Phaeosphaeria nodorum; Test Example 6, compound (1) 1.25 ppm alone, 25° C., seven days) was 89%.
For `CC(Cc1ccc(C(C)(C)C)cc1)CN1CCCCC1` (stereo not drawn) [Fenpropidine, fenpropidine], the “Fungal growth inhibition rate (%) Measured value” (Septoria tritici; Test Example 8, fenpropidine 0.04 ppm alone) was 0%, the “Fungal growth inhibition rate (%) Measured value” (Septoria tritici; Test Example 8, fenpropidine 0.16 ppm alone) was 0% and the “Fungal growth inhibition rate (%) Measured value” (Septoria tritici; Test Example 8, fenpropidine 0.63 ppm alone) was 40%. For the same compound, the “Fungal growth inhibition rate (%) Measured value” (Septoria tritici; Test Example 8, fenpropidine 2.50 ppm alone) was 38% and the “Fungal growth inhibition rate (%) Measured value” (Septoria tritici; Test Example 8, fenpropidine 10.00 ppm alone) was 40%.
For `CC(Cc1ccc(C(C)(C)C)cc1)CN1C[C@@H](C)O[C@@H](C)C1` (stereo partly drawn) [Fenpropimorph, fenpropimorph], the inhibition at 0.04 ppm (Septoria tritici; [2]) was 16%, the inhibition at 0.16 ppm (Septoria tritici; [2]) was 21% and the inhibition at 0.63 ppm (Septoria tritici; [2]) was 23%. For the same compound, the inhibition at 2.5 ppm (Septoria tritici; [2]) was 42% and the inhibition at 10 ppm (Septoria tritici; [2]) was 45%.
`CC(C)C1CCC(Cc2ccc(Cl)cc2)C1(O)Cn1cncn1` (stereo not drawn) [Ipconazole, ipconazole] showed an inhibition at 0.01 ppm (Phaeosphaeria nodorum; [3]) of 20%, an inhibition at 0.04 ppm (Phaeosphaeria nodorum; [3]) of 31% and an inhibition at 0.16 ppm (Phaeosphaeria nodorum; [3]) of 62%. For the same compound, the inhibition at 0.63 ppm (Phaeosphaeria nodorum; [3]) was 76%.
`CC1(C)CCC(Cc2ccc(Cl)cc2)C1(O)Cn1cncn1` (stereo not drawn) [Metconazole, metconazole] was tested, and the inhibition at 0.01 ppm (Septoria tritici; [2]) was 0%, the inhibition at 0.039 ppm (Septoria tritici; [2]) was 0% and the inhibition at 0.156 ppm (Septoria tritici; [2]) was 11%. The inhibition at 0.625 ppm (Septoria tritici; [2]) was 56% and the inhibition at 2.5 ppm (Septoria tritici; [2]) was 98%.
For `CCCC1COC(Cn2cncn2)(c2ccc(Cl)cc2Cl)O1` (stereo not drawn) [Propiconazole, propiconazole], the inhibition at 0.156 ppm (Microdochium nivale; [4]) was 0%, the inhibition at 0.625 ppm (Microdochium nivale; [4]) was 45% and the inhibition at 2.5 ppm (Microdochium nivale; [4]) was 76%.
For `OC(Cc1ccccc1Cl)(Cn1nc[nH]c1=S)C1(Cl)CC1` (stereo not drawn) [Prothioconazole, prothioconazole], the inhibition at 0.01 ppm (Septoria tritici; [2]) was 0%, the inhibition at 0.039 ppm (Septoria tritici; [2]) was 10% and the inhibition at 0.156 ppm (Septoria tritici; [2]) was 21%. The inhibition at 0.625 ppm (Septoria tritici; [2]) was 51% and the inhibition at 2.5 ppm (Septoria tritici; [2]) was 100%.
Work on `CC(C)(C)C(O)(CCc1ccc(Cl)cc1)Cn1cncn1` (stereo not drawn) [Tebuconazole, tebuconazole] yielded an inhibition at 0.04 ppm (Penicilium italicum; [5]) of 3%, an inhibition at 0.16 ppm (Penicilium italicum; [5]) of 30% and an inhibition at 0.63 ppm (Penicilium italicum; [5]) of 68%. It also gave an inhibition at 2.5 ppm (Penicilium italicum; [5]) of 87% and an inhibition at 10 ppm (Penicilium italicum; [5]) of 100%.
